Counter-ions that a name gives are not always drawn. ± gives the standard error.
Experiments:
621-102 (TSC2-deficient) = assay: relative viability vs DMSO; higher = less cytotoxic; details: serum: 10% FBS, 72 h
621-103 (TSC2-rescued) = assay: as above; details: serum: 10% FBS, 72 h
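Further: immortalized renal angiomyolipoma cells stably carrying empty vector or TSC2, dosed in 384-well plates in DMEM, viability normalized to vehicle-treated wells within each plate.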

Row | SMILES | relative viability (621-102 (TSC2-deficient); 0.0001 µM) | relative viability (621-102 (TSC2-deficient); 0.001 µM) | relative viability (621-102 (TSC2-deficient); 0.01 µM) | relative viability (621-102 (TSC2-deficient); 0.1 µM) | relative viability (621-102 (TSC2-deficient); 1 µM) | relative viability (621-102 (TSC2-deficient); 10 µM) | relative viability (621-103 (TSC2-rescued); 0.0001 µM) | relative viability (621-103 (TSC2-rescued); 0.001 µM) | relative viability (621-103 (TSC2-rescued); 0.01 µM) | relative viability (621-103 (TSC2-rescued); 0.1 µM) | relative viability (621-103 (TSC2-rescued); 1 µM) | relative viability (621-103 (TSC2-rescued); 10 µM)
1 | COc1cc2c(cc1O)CC[C@@H]1[C@@H]2CC[C@]2(C)[C@@H](O)CC[C@@H]12 [2-Methoxyestradiol] | 121 ± 1.9% | 118 ± 3.8% | 112 ± 2.2% | 107 ± 3.3% | 80 ± 2.5% | 39.8 ± 1.9% | 107 ± 2.6% | 103.2 ± 0.73% | 98.66 ± 0.82% | 98.8 ± 2% | 82.5 ± 3.2% | 53.7 ± 0.91%
2 | c1ccc2c(CCNc3ccc(Nc4ccncc4)cc3)c[nH]c2c1 | 131 ± 2% | 122 ± 2.9% | 119.8 ± 0.41% | 114 ± 1.4% | 110 ± 6.2% | 68.7 ± 4.9% | 113.5 ± 1% | 103 ± 1.1% | 103 ± 1.1% | 106 ± 1.8% | 105 ± 2% | 64.7 ± 3.8%
3 | O=C(O)/C=C/c1ccc(Cn2ccnc2)cc1 [Ozagrel] | 100 ± 3.7% | 108 ± 3.7% | 105 ± 2.5% | 110 ± 5.1% | 102.8 ± 0.53% | 95.1 ± 4.6% | 107 ± 1.8% | 112 ± 1.7% | 98.4 ± 2.8% | 104 ± 3.1% | 106 ± 2.4% | 103 ± 1.1%
4 | CN1CCCC(n2nc(Cc3ccc(Cl)cc3)c3ccccc3c2=O)CC1 (stereo unspecified) [Azelastine HCl (Astelin)] | 111 ± 0.65% | 114 ± 4.5% | 103 ± 4.9% | 109 ± 1.6% | 106.8 ± 0.17% | 90.43 ± 0.82% | 101 ± 3.8% | 92.3 ± 4.6% | 98.15 ± 0.86% | 100 ± 6.5% | 102 ± 2.2% | 68.28 ± 0.32%
5 | C[N+]1(C)[C@@H]2C[C@@H](OC(=O)C(O)(c3cccs3)c3cccs3)C[C@H]1[C@@H]1O[C@@H]12 [Tiotropium] | 119 ± 3.2% | 114 ± 4.8% | 115 ± 4.8% | 111 ± 2.6% | 117 ± 4.4% | 112.5 ± 1.1% | 82.2 ± 1.7% | 96 ± 3.8% | 103.3 ± 0.58% | 96.8 ± 4.6% | 102.87 ± 0.086% | 100.4 ± 0.9%
6 | COc1cc2ncnc(Nc3ccc(F)c(Cl)c3)c2cc1OCCCN1CCOCC1 [Gefitinib] | 111 ± 1.2% | 105.6 ± 0.46% | 106.5 ± 0.3% | 96.3 ± 4.1% | 100 ± 1.1% | 84.7 ± 1.8% | 101 ± 1.8% | 101 ± 1.2% | 102 ± 1.6% | 99.7 ± 1.1% | 99.2 ± 1.2% | 76.4 ± 3.7%
7 | CC(C)n1nc(-c2cc3cc(O)ccc3[nH]2)c2c(N)ncnc21 [PP242] | 93.3 ± 6.1% | 95.7 ± 2.2% | 103 ± 2% | 101.44 ± 0.046% | 46 ± 1.6% | 16.86 ± 0.071% | 107 ± 6.5% | 107.2 ± 0.94% | 103 ± 2.7% | 80.1 ± 1.7% | 38 ± 0.41% | 23.13 ± 0.076%
8 | CN1CCN(c2ccc([N+](=O)[O-])c3no[n+]([O-])c23)CC1 | 102 ± 5.5% | 101.2 ± 1% | 105 ± 1.3% | 102 ± 1.3% | 103 ± 1.9% | 88.03 ± 0.45% | 75 ± 4.3% | 82.8 ± 4.1% | 87.4 ± 5.2% | 98.8 ± 1.6% | 96 ± 2.7% | 65.3 ± 5%
9 | O=C1c2c(O)ccc(O)c2C(=O)c2c(NCCNCCO)ccc(NCCNCCO)c21 [Mitoxantrone] | 79.5 ± 1.5% | 70.5 ± 3.2% | 65.8 ± 4.4% | 33.21 ± 0.054% | 5.07 ± 0.86% | 2.13 ± 0.16% | 94.9 ± 2.3% | 87.32 ± 0.1% | 90.41 ± 0.1% | 36.95 ± 0.31% | 8.71 ± 0.34% | 3.19 ± 0.27%
10 | O=C(O)CC[C@H]1CC[C@@](c2cc(F)ccc2F)(S(=O)(=O)c2ccc(Cl)cc2)CC1 [MK-0752] | 108 ± 3.6% | 104 ± 3.3% | 102 ± 3.8% | 98.1 ± 2.5% | 101.6 ± 0.5% | 97 ± 5% | 115 ± 4.2% | 108 ± 0.7% | 107 ± 1.9% | 111.21 ± 0.076% | 106 ± 5.4% | 111 ± 1.3%
11 | C/C(=C\C(=O)Nc1ccccc1C(=O)O)c1ccc2ccccc2c1 [BIBR1532] | 93.51 ± 0.69% | 98.3 ± 0.93% | 112 ± 5.2% | 105.7 ± 1% | 95.36 ± 0.93% | 87.4 ± 2.7% | 110 ± 3.1% | 98.3 ± 5% | 104.2 ± 0.53% | 103 ± 1.3% | 99.8 ± 0.11% | 96.4 ± 1.2%
12 | COc1ccc(-c2nc3cc(C4=NNC(=O)CC4C)ccc3[nH]2)cc1 (stereo unspecified) [Pimobendan (Vetmedin)] | 105.47 ± 0.018% | 106 ± 0.73% | 103 ± 2.5% | 108 ± 3.9% | 101 ± 2.5% | 87.99 ± 0.68% | 104 ± 2.3% | 101.7 ± 0.57% | 102.2 ± 0.15% | 100 ± 3.2% | 99.3 ± 3.6% | 84.13 ± 0.39%
13 | C/C(=C\c1csc(C)n1)[C@@H]1C[C@@H]2O[C@@H]2CCC[C@H](C)[C@H](O)[C@@H](C)C(=O)C(C)(C)[C@@H](O)CC(=O)O1 [Epothilone A] | 63.5 ± 3% | 47 ± 4% | 31.1 ± 0.38% | 27.3 ± 1.1% | 30.4 ± 0.53% | 34.2 ± 0.53% | 87.3 ± 1.9% | 59.1 ± 2.4% | 44 ± 1.4% | 30.8 ± 0.67% | 26.7 ± 0.62% | 50.59 ± 0.26%
14 | Cc1[nH]c2ccccc2c1CCNCc1ccc(/C=C/C(=O)NO)cc1 [LBH-589 (Panobinostat)] | 96.4 ± 2.3% | 86.7 ± 1.3% | 69.1 ± 3.1% | 41.28 ± 0.39% | 25.4 ± 1% | 11.9 ± 0.59% | 97.6 ± 1.1% | 85.6 ± 1.8% | 52.19 ± 0.31% | 4.57 ± 0.076% | 1.66 ± 0.2% | 1.1 ± 0.019%
15 | COc1cc2c(cc1Cc1cccc(Cl)c1F)c(=O)c(C(=O)O)cn2[C@H](CO)C(C)C [Elvitegravir] | 96.63 ± 0.78% | 107.1 ± 0.31% | 105 ± 3.3% | 106 ± 1.4% | 110 ± 3% | 99.7 ± 3.7% | 101 ± 1.1% | 102 ± 1.9% | 98.96 ± 0.48% | 98.96 ± 0.9% | 101.1 ± 1% | 99.17 ± 0.59%
16 | COC(=O)N[C@H](C(=O)N1CCC[C@H]1c1ncc(-c2ccc(-c3ccc(-c4cnc([C@@H]5CCCN5C(=O)[C@@H](NC(=O)OC)C(C)C)[nH]4)cc3)cc2)[nH]1)C(C)C | 103 ± 3.2% | 105 ± 0.22% | 106 ± 1.6% | 101 ± 3.8% | 96.21 ± 0.14% | 81.1 ± 2% | 100 ± 2.7% | 98.82 ± 0.6% | 100 ± 1.2% | 102 ± 2.3% | 99.4 ± 2.4% | 94.1 ± 1.9%
17 | O=C(NC[C@H]1CN(c2ccc(N3CCOCC3=O)cc2)C(=O)O1)c1ccc(Cl)s1 [Rivaroxaban (Xarelto)] | 101 ± 5.5% | 104.4 ± 0.87% | 122.4 ± 0.29% | 117 ± 6.5% | 116 ± 1.6% | 120 ± 3.2% | 105 ± 2.4% | 116 ± 3.4% | 121 ± 1.5% | 117 ± 2.9% | 112 ± 1.1% | 104 ± 3.9%
18 | COc1cc2c(cc1OC)C(=O)C(CC1CCN(Cc3ccccc3)CC1)C2 (stereo unspecified) [Donepezil HCl] | 96.2 ± 3.9% | 108 ± 4.1% | 103.6 ± 0.26% | 111 ± 1.3% | 101.6 ± 0.44% | 86.8 ± 1.3% | 93.1 ± 3% | 105 ± 2.5% | 102 ± 4.3% | 106 ± 1.8% | 104 ± 3.4% | 93.21 ± 0.93%

From the supplement of paper PMC8960247
